# Experimental data published in patent US20250282844A1, “METHODS FOR CONTROLLING IMMUNE CELL ACTIVITY” (BIOSCEPTRE (AUST) PTY LTD, priority 2021, published 2025).
# Test system: JeKo-1 cells
# Experiment: Co-culture of T cells (unmodified or expressing nfP2X7 CAR) with JeKo-1 cells, with or without blocking peptide
# Format: cell-based
# Conditions: FIG. 3
# Experimental: More specifically, T cells (either unmodified or expressing nfP2X7 CAR) were cultured with JeKo-1 cells at an ET ratio of 5 to 1. Blocking was performed using peptide variant 2 at 5 μg/mL.
# On day 5 of co-culture the cell counts were measured and evaluated for total JeKo-1 cell count. The total number of JeKo-1 cells added in the experiment was 20,000 on day 1 and day 3 of the experiment (therefore the total amount of added cells was 40,000 JeKo-1 per condition).
# Addition of the blocking peptide variant 2 at 5 ug/mL reversed this such that after 5 days, 40,000 JeKo-1 cells were present in culture.
sequence,measurement,setting,value
DFPGHNYTTRNILPGLNITSTFHKTSGSGKGGGGS (E200_extended peptide 17v12 (35 aa) + linker) [peptide variant 2],total JeKo-1 cell count,"T cells expressing nfP2X7 CAR, ET 5 to 1, peptide at 5 ug/mL, day 5 of co-culture, 40,000 JeKo-1 added in total","40,000 cells"
same,total JeKo-1 cell count,"T cells that do not express nfP2X7 CAR (60,000 cells after 5 days without peptide), effect of adding blocking peptide",not changed
